Data reported in patent US4918012A (Kyowa Hakko Kogyo Co., Ltd., priority 1986, dated 1990).

Tests used:
strain CA28-50A = assay: Effect of compound added to growth medium on carnitinamide hydrolase formation (Example 9); type: cell-based, Pseudomonas sp. CA28-50A; conditions: 26° C.; for Conversion Rate of L-carnitinamide into L-carnitine: cells reacted with 10% DL-carnitinamide, 96 hours; for Growth (optical density at 660, 1.00 cm, 20 times dilution): strain CA28-50A, 3 days
Description: In a medium consisting of 1% glucose, 0.5% peptone, 0.75% K2 HPO4, 0.25% KH2 PO4, 0.01% MgSO4.7H2 O, 0.001% FeSO4.7H2 O and one of the compounds shown in Table 6 below and the balance water (pH 7.2) was inoculated the strain CA28-50A and shake cultured at 26° C. for 3 days. Cells collected from the culture broth by centrifugation were suspended in a reaction solution containing 10% DL-carnitinamide in the same density as that in the medium for growth culture, and the resulting suspension was allowed to stand at 26° C. for 96 hours for the reaction.

[1] = test system: L-carnitinamide hydrolase; assay: Inhibitors of L-carnitinamide hydrolase (metal ions, EDTA, 2-mercaptoethanol); type: biochemical, Pseudomonas sp.
Description: The determination of the activity of carnitinamide hydrolase can be carried out by measuring the amount of carnitine generated by, for example, Pearson's method (D. J. Pearson et al., Method in Enzymology, Vol. 14, 612 (1969)). When there is no inhibitory substances present, the determination of the activity of the enzyme can also be carried out by measuring the amount of ammonia generated by the reaction.

Compound	Inhibition of the enzyme ([1]; concentration of 1 mM)	Inhibition of the enzyme ([1]; at 10 mM)	further results
Cl.N [NH4 Cl]	–	–	Conversion Rate of L-carnitinamide into L-carnitine (strain CA28-50A; compound 0.1% in growth medium): 2.9%; Growth (optical density at 660, 1.00 cm, 20 times dilution) (strain CA28-50A; compound 0.1% in growth medium): 0.23
[Co+2] [Co]	no inhibition	–	–
C[N+](C)(C)CC(O)CC(=O)[O-] (racemic) [DL-Carnitine]	–	–	Conversion Rate of L-carnitinamide into L-carnitine (strain CA28-50A; compound 0.5% in growth medium): 90.0%; Growth (optical density at 660, 1.00 cm, 20 times dilution) (strain CA28-50A; compound 0.5% in growth medium): 0.27
C[N+](C)(C)CC(O)CC(N)=O (racemic) [DL-Carnitinamide]	–	–	Conversion Rate of L-carnitinamide into L-carnitine (strain CA28-50A; compound 0.5% in growth medium): 88.7%; Growth (optical density at 660, 1.00 cm, 20 times dilution) (strain CA28-50A; compound 0.5% in growth medium): 0.27
[Ni+2] [Ni]	no inhibition	slight inhibition	–
C[N+](C)(C)CCCC(=O)[O-] [γ-Butyrobetaine]	–	–	Conversion Rate of L-carnitinamide into L-carnitine (strain CA28-50A; compound 0.5% in growth medium): 12.3%; Growth (optical density at 660, 1.00 cm, 20 times dilution) (strain CA28-50A; compound 0.5% in growth medium): 0.26

The next lines start with results.

Inhibition of the enzyme ([1]; concentration of 1 mM)	Inhibition of the enzyme ([1]; at 10 mM)	Compound	further results
no inhibition	–	[Zn+2] [Zn]	–
no inhibition	–	[Mg+2] [Mg]	–
do not show inhibition	do not show inhibition	O=C(O)CN(CCN(CC(=O)O)CC(=O)O)CC(=O)O [EDTA]	–
no inhibition	–	[Mn+2] [Mn]	–
slight inhibition	remarkable inhibition	[Ag+] [Ag ion]	–
do not show inhibition	do not show inhibition	OCCS [2-mercaptoethanol]	–
